This is an account of results in patent US20260109712A1, “RIFAMYCINS FOR NONTUBERCULOUS MYCOBACTERIA” (priority 2022, published 2026).

Converted amounts (≈) assume the structure as drawn. Like-named read-outs stand apart in the source and are kept apart here.

One data set relates to M. chelonae ATCC 35752. As to the kind of experiment: MIC, anti-mycobacterial profiling. Format: cell-based, Mycobacterium chelonae. To be noted: for MIC: mean of two experiments.
Data set [1] concerns M. intracellulare ATCC 13950. As to the kind of experiment: MIC, anti-mycobacterial profiling. Format: cell-based, Mycobacterium intracellulare. To be noted: for MIC: mean of two experiments.
In data set [2] the test system is M. abscessus subspecies abscessus. Briefly: MIC, Table 9. Format: cell-based, Mycobacterium abscessus. As to conditions: for MIC: M. abscessus subspecies abscessus.
A further data set deals with M. xenopi ATCC 19250. Briefly: MIC, anti-mycobacterial profiling. Format: cell-based, Mycobacterium xenopi. As to conditions: for MIC: mean of two experiments.
For data set [3], the system named is M. abscessus subspecies bolletii. As to the kind of experiment: MIC, Table 9. The data set is classed as cell-based, Mycobacterium abscessus. To be noted: for MIC: M. abscessus subspecies bolletii.
The test system of the next data set is M. simiae. Briefly: MIC, Table 9. The data set is classed as cell-based, Mycobacterium simiae.
In data set [4] the test system is M. abscessus subspecies massilense. Briefly: MIC, Table 9. The data set is classed as cell-based, Mycobacterium abscessus. To be noted: for MIC: M. abscessus subspecies massilense.
A further data set relates to M. fortuitum. As to the kind of experiment: MIC, Table 9. Format: cell-based, Mycobacterium fortuitum.
Data set [5] in a line: Plasma protein binding assay (rapid equilibrium dialysis). The data set is classed as in vitro ADME. In a few lines:
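Rapid equilibrium dialysis ran 4 h at 37° C (300 RPM) with compound-spiked plasma (10,000 ng/mL) on one side and PBS on the other. Each side was then mixed 1:1 […] to equalise matrix before LC-MS/MS quantification.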

The next data set deals with Δarr M. abscessus. Briefly: MIC assay, isogenic arr-deleted strain. The data set is classed as cell-based, Mycobacterium abscessus. As to conditions: arr-deleted strain; 90% growth inhibition. In a few lines:
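Two-fold, ten-point dilutions in 7H9 with 2% DMSO; mid-log culture diluted to OD600=0.1 (1×10^7 CFU/mL). Incubated 3 days at 37 °C, shaking 110 RPM; growth = Day 3 minus Day 0 OD600, expressed as percentage of drug-free growth and plotted against concentration. Two biological replicates.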

A further data set has as its system M. chelonae. As to the kind of experiment: MIC, Table 9. The data set is classed as cell-based, Mycobacterium chelonae.
Data set [6] relates to M. abscessus subsp. massiliense CCUG 48898T. As to the kind of experiment: MIC, anti-mycobacterial profiling. Format: cell-based, Mycobacterium abscessus. To be noted: for MIC: mean of two experiments. The method, then:
(§1) MIC determination was carried out in 96-well plate format as previously described.^[13-14] 96-well plates were initially set up with 100 μL of 7H9 per well. For each compound, a ten-point two-fold dilution series starting at twice the desired highest concentration was dispensed onto the 96-well plates using a Tecan D300e Digital Dispenser, with the DMSO concentration normalized to 2%. M. abscessus culture grown to mid-log phase (OD600=0.4-0.6) was diluted to OD600=0.1 (1×10^7 CFU/mL). 100 μL of the resulting bacteria suspension was dispensed onto the 96-well plates containing compounds to give a final volume of 200 μL per well with an initial OD600=0.05 (5×10^6 CFU/mL) and final DMSO concentration of 1%. Final compound concentration ranges were typically 50-0.098 μM, 6.25-0.012 μM, 0.006-3.13 μM, or 0.003-1.56 μM. Untreated control wells are included on each plate that contain bacteria suspension and 1% DMSO. Plates were sealed with parafilm, stored in boxes with wet paper towels and incubated at 37° C. with shaking (110 RPM). Plates were incubated for 3 days. To determine growth, OD600 was measured using a Tecan Infinite M200 plate reader on Day 0 and Day 3. Two biological replicates were performed. Clarithromycin was included in each experiment as a positive control.
(§2) For each well on the 96-well plate, bacterial growth was calculated by subtracting the Day 0 OD600 value from the Day 3 OD600 value. For each compound series, the bacterial growth values for the untreated control wells were averaged to give the average drug-free bacterial growth. For compound-containing wells, percentage growth was calculated by dividing their growth values by the average drug-free bacterial growth for the compound series and multiplying by 100. For each compound series, we plotted percentage growth versus compound concentration. By visual inspection of the dose-response curve, we determined the MIC of a compound as the compound concentrations that would result in 90% growth inhibition.
(§3) The MIC data was determined using methods disclosed in Example 1.

Data set [7] concerns M. abscessus subsp. bolletii CCUG 50184T. As to the kind of experiment: MIC, anti-mycobacterial profiling. As to conditions: for MIC: mean of two experiments. The data set is classed as cell-based, Mycobacterium abscessus. The method, then:
as §1, §2, §3

A further data set concerns M. szulgai ATCC 35799. As to the kind of experiment: MIC, anti-mycobacterial profiling. Format: cell-based, Mycobacterium szulgai. As to conditions: for MIC: mean of two experiments.
Setting [8] is: Mycobacteroides chelonae, ATCC35752.
Where [9] appears, read: Mycobacterium intracellulare, ATCC13950.
The mark [10] stands for this setting: Mycobacterium xenopi, ATCC19250.
The mark [11] stands for this setting: Mycobacterium szulgai, ATCC35799.

In the case of `CO[C@H]1/C=C/O[C@@]2(C)Oc3c(C)c(O)c4c(c3C2=O)C2=NC3(CCN(CC(C)C)CC3)NC2=C(NC(=O)/C(C)=C/C=C/[C@H](C)[C@H](O)[C@@H](C)[C@@H](O)[C@@H](C)[C@H](OC(=O)c2cccnc2)[C@@H]1C)C4=O` [5m, 25-O-(3-pyridinecarbonyl)-25-O-desacetyrifabutin], the “Fold improvement (RFB-5m vs RFB)” value amounted to 30 in the data set with M. chelonae ATCC 35752; 0.8 in data set [1]; 4.0 in the data set on M. xenopi ATCC 19250; 12 in data set [6]; 31 in data set [7]; 1.7 with M. szulgai ATCC 35799. For the same molecule, the MIC is 0.02 µM (≈ 0.0182 µg/mL) in the data set on M. chelonae ATCC 35752; 0.06 µM (≈ 0.0546 µg/mL) in data set [1]; 0.05 µM (≈ 0.0455 µg/mL) in data set [2]; 0.005 µM (≈ 0.00455 µg/mL) against M. xenopi ATCC 19250; 0.03 µM (≈ 0.0273 µg/mL) in data set [3]; 0.18 µM (≈ 0.164 µg/mL) against M. simiae. The MIC in data set [4] turned out to be 0.04 µM (≈ 0.0364 µg/mL); against M. fortuitum, 0.01 µM (≈ 0.0091 µg/mL); in the data set on M. chelonae, 0.01 µM (≈ 0.0091 µg/mL); in data set [6], 0.05 µM (≈ 0.0455 µg/mL); in data set [7], 0.07 µM (≈ 0.0637 µg/mL); against M. szulgai ATCC 35799, 0.006 µM (≈ 0.00546 µg/mL). In addition, the fold improvement in data set [2] (5m vs rifabutin, subspecies abscessus) is reported as 30; in data set [3] (5m vs rifabutin, subspecies bolletii), 40; in the data set with M. simiae (5m vs rifabutin), 56; in data set [4] (5m vs rifabutin, subspecies massilense), 8; in the data set with M. fortuitum (5m vs rifabutin), 60; in the data set with M. chelonae (5m vs rifabutin), 58. Further, in data set [5] (plasma), the “fold increase in the unbound fraction in plasma” value is “at least 100 fold”. Besides, the “Δarr Mab MIC” value in the data set with Δarr M. abscessus is 0.026 µM.
`CC[C@H]1OC(=O)[C@H](C)[C@@H](O[C@H]2C[C@@](C)(OC)[C@@H](O)[C@H](C)O2)[C@H](C)[C@@H](O[C@@H]2O[C@H](C)C[C@H](N(C)C)[C@H]2O)[C@](C)(OC)C[C@@H](C)C(=O)[C@H](C)[C@@H](O)[C@]1(C)O` [clarithromycin, reference compound]: the MIC is 0.1 µM (≈ 0.0748 µg/mL) in the data set on M. chelonae ATCC 35752 (setting [8]); 0.4 µM (≈ 0.299 µg/mL) in data set [1] (setting [9]); 0.06 µM (≈ 0.0449 µg/mL) in the data set on M. xenopi ATCC 19250 (setting [10]); 1.1 µM (≈ 0.823 µg/mL) in data set [6] (Mycobacteroides abscessus); 4.3 µM (≈ 3.22 µg/mL) in [7] (Mycobacteroides abscessus); 0.3 µM (≈ 0.224 µg/mL) with M. szulgai ATCC 35799 (setting [11]). For the same molecule, in the data set on Δarr M. abscessus, the “Δarr Mab MIC” value was 1.8 µM.
Take `CO[C@H]1/C=C/O[C@@]2(C)Oc3c(C)c(O)c4c(c3C2=O)C2=NC3(CCN(CC(C)C)CC3)NC2=C(NC(=O)/C(C)=C\C=C\[C@H](C)[C@H](O)[C@@H](C)[C@@H](O)[C@@H](C)[C@H](OC(C)=O)[C@@H]1C)C4=O` [rifabutin, reference compound]: the MIC with M. chelonae ATCC 35752 (setting [8]) was 0.6 µM (≈ 0.508 µg/mL); in data set [1] (setting [9]), 0.05 µM (≈ 0.0424 µg/mL); in data set [2] (Mycobacteroides abscessus), 1.5 µM (≈ 1.27 µg/mL); with M. xenopi ATCC 19250 (setting [10]) it was 0.02 µM (≈ 0.0169 µg/mL); in data set [3] (Mycobacteroides abscessus), 1.2 µM (≈ 1.02 µg/mL); against M. simiae (Mycobacterium simiae), 10 µM (≈ 8.47 µg/mL). The MIC in data set [4] (Mycobacteroides abscessus) worked out at 0.3 µM (≈ 0.254 µg/mL); in the data set with M. fortuitum (Mycolicibacterium fortuitum), 0.6 µM (≈ 0.508 µg/mL); in the data set with M. chelonae (Mycobacteroides chelonae), 0.58 µM (≈ 0.491 µg/mL); in data set [6] (Mycobacteroides abscessus), 0.6 µM (≈ 0.508 µg/mL); in data set [7] (Mycobacteroides abscessus), 2.2 µM (≈ 1.86 µg/mL); against M. szulgai ATCC 35799 (setting [11]), 0.01 µM (≈ 0.00847 µg/mL). Moreover, the ƒu in [5] (4 h, 10000 ng/mL) is given as 4.5%. In data set [5] (plasma), this molecule gave a fraction unbound at 4 h, 10000 ng/mL of 0.0376. Also, the “plasma unbound (ƒu, %)” value in [5] (plasma, 4 h, 10000 ng/mL) turned out to be 3.8%. The molecule also had an unbound fraction in data set [5] (plasma, 4 h, 10000 ng/mL) of 3.76%. For the same molecule, the “Δarr Mab MIC” value in the data set on Δarr M. abscessus was 0.031 µM.
